Like-named read-outs stand apart in the source and are kept apart here.
Columns and labels:
SH2 domain = settings: validated SH2 domain ligand; cited from earlier work
Src tyrosine kinase [1] = molecular target: T1, Src tyrosine kinase (Homo sapiens, UniProt P12931); assay: Src kinase inhibition; format: biochemical
Src tyrosine kinase [2] = molecular target: T1, Src tyrosine kinase; settings: cited from earlier work
[3] = Table 1, Src inhibitors, pre-photolysis

Substance	IC50 (Src tyrosine kinase [1]; [3]) [nM]	other results
Ac-pTyrGluGluIle-amide	–	Kd (SH2 domain): 1000 to 5000 nM
Ba-EEEIFGE-II-Dap(Hna)-βA3-pYEEIEX [Compound 7]	220 ± 10	–
Ba-EEEIFGE-III-Dap(Hna)-βA3-pY-III-EIEX [Compound 9]	7500	–
Ba-EEEIFGEF-Dap(Hna)-βA3-pYEEIEX [Compound 1]	–	IC50 (Src tyrosine kinase [2]): 36 ± 2 nM; Ki (Src tyrosine kinase [2]): 26 ± 4 nM
Ba-EEEIFGEF-Dap(Hna)-βA-I-βA-pYEEIEX [Compound 4]	115 ± 9	–
Ba-EEEIFGEF-Dap(Hna)-βA-II-βA-pYEEIEX [Compound 5]	38 ± 4	–
Ba-EEEIFGEF-Dap(Hna)-βA-III-βA-pY-III-EIEX [Compound 10]	1600	–
Ba-EEEIFGEF-Dap(Hna)-βA-III-βA-pYEEIEX [Compound 6]	18 ± 5	Src kinase activity in the presence of inhibitor (Src tyrosine kinase [1]; 1.9 μM inhibitor, no irradiation): completely blocked; IC50 (Src tyrosine kinase [1]; in the presence of 320 μM Ac-pTyrGluGluIle-amide (SH2 ligand competition)): 325 ± 60 nM
Ba-EEEIFGEF-Dap(Hna)C-III-βA-pYEEIE-NH2 [Compound 11]	56 ± 4	–

Reference: paper PMC2628309 (Journal of the American Chemical Society, 2008)
